From patent US10577365B2, “Derivatives of quinoline as inhibitors of DYRK1A and/or DYRK1B kinases” (Felicitex Therapeutics, Inc., priority 2016, dated 2020) come the findings set out here.

pIC50: −log10 of the molar value. Structures can show the parent of a compound that is named as a salt.

One assay has as its target T1, DYRK1A (Homo sapiens, UniProt Q13627).
T1 construct: purchased Carna Bioscence (Carna Biosciences) 04-130
Briefly: DYRK1A in vitro kinase assay (ADP-Glo). The assay is classed as biochemical. The settings on record: ATP 70 μM (Km), substrate 3 μM, enzyme 2 nM or 0.7 nM, 30 min, rt. How it is done: The compounds of the present invention were tested for their inhibitory activity against DYRK1A and DYRK1B kinases once or several times. When tested more than once, the data are reported herein as average value, wherein the average value, also referred to as the mean value, represents the sum of obtained values divided by the number of times tested.
DYRK-inhibitory activity of the compounds of the present invention was tested using the ADP-Glo™ assay as described in the following paragraphs. The procedure for determining the IC50 values with the ADP-Glo™ assay in in vitro kinase assays consists of two parts:
1. Kinase reaction performed under optimized conditions;
2. Detection of ADP as a product of the reaction using ADP-Glo™ system (Promega).
The tested compounds indicated in Table 5 below were dissolved in DMSO, then transferred to the V-bottom PP plate to perform nine serial dilutions (in order to obtain dose-response curves) in 25% DMSO, as indicated in Table 5 below.
The optimized conditions for performing DYRK1A in vitro kinase assay were as follows:
For compound testing, the following protocol was used: two mixes were prepared on ice, Mix 1 containing substrate, ATP and reaction buffer and Mix 2 containing reaction buffer and the kinase. 15 μL per well of Mix 1 was transferred to wells of a 96-well plate. Next, 2.5 μL of the pre-diluted compound to be tested was added to Mix 1, followed by the addition of 12.5 μL of Mix 2. Total reaction volume was 30 μL per well. The experiment was performed in duplicate for each data point being examined. Dose response curve for the positive control was carried out on each assay plate by adding the reference inhibitory compound staurosporine. For each test, three controls were also included: (i) 30 μL of the reaction mixture containing: reaction buffer, ATP, kinase, DMSO without substrate (quasi-positive control); (ii) 30 μL of the reaction mixture containing reaction buffer, substrate, ATP, DMSO without kinase (background control); (iii) 30 μL of the reaction mixture containing reaction buffer, substrate, kinase, ATP, DMSO (vehicle control). Final concentration of DMSO in the reaction was 2%. To detect the ADP amount produced during the kinase reaction, the commercially available kit ADP-Glo™ Kinase Assay (Promega, cat. No # V9103) was used. The protocol used for the detection was based on the Technical Bulletin of the ADP-Glo™ Kinase Assay (Promega) and was adapted to 96-well plate containing 30 μL reaction mixture as explained below.
30 μL of ADP-Glo™ Reagent was added to each well of a 96 well plate containing 30 μL of reaction mixture to terminate the kinase reaction and deplete the remaining ATP. The plate was incubated for 60 minutes on a shaker at rt. 60 μL of Kinase Detection Solution was then added to each well of 96-well plate containing 60 μL of the solution to convert ADP to ATP and to allow the newly synthesized ATP to be measured using a luciferase/luciferin reaction (ratio of kinase reaction volume to ADP Glo™ Reagent volume to Kinase Detection Solution volume was maintained at 1:1:2). The plate was incubated for 40 minutes on a shaker at rt, protected from light. Luminescence was measured in the plate reader, wherein the luminescent signal is proportional to the ADP concentration produced and thus correlates with kinase activity.
After data normalization to controls (complete reaction mix and no-substrate control) and transforming X values (test compound concentrations) using: X=log(X), IC50 values were determined, using the GraphPad Prism 6.0 [log(agonist) vs. normalized response—Variable slope].
(ADP-Glo first removes unused ATP, then detects ADP through luciferase.)

A further assay deals with T2, DYRK1B (Homo sapiens, UniProt Q9Y463).
T2 construct: purchased Carna Bioscence (Carna Biosciences) 04-131
The assay can be described thus: DYRK1B in vitro kinase assay (ADP-Glo). The class given is biochemical. The settings on record: ADP-Glo assay, ATP 15 μM (Km), substrate 7 μM, enzyme 1 nM or 0.3 nM, 1 h, rt; read-out: DYRK1B IC50. Here is the method: The compounds of the present invention were tested for their inhibitory activity against DYRK1A and DYRK1B kinases once or several times. When tested more than once, the data are reported herein as average value, wherein the average value, also referred to as the mean value, represents the sum of obtained values divided by the number of times tested. DYRK-inhibitory activity of the compounds of the present invention was tested using the ADP-Glo™ assay as described in the following paragraphs. The procedure for determining the IC50 values with the ADP-Glo™ assay in in vitro kinase assays consists of two parts: […] Kinase reaction performed under optimized conditions; 2. Detection of ADP as a product of the reaction using ADP-Glo™ system (Promega). The tested compounds indicated in Table 5 below were dissolved in DMSO, then transferred to the V-bottom PP plate to perform nine serial dilutions (in order to obtain dose-response curves) in 25% DMSO, as indicated in Table 5 below. The optimized conditions for performing DYRK1B in vitro kinase assay were as follows: [table] For compound testing, the following protocol was used: two mixes were prepared on ice, Mix 1 containing substrate, ATP and reaction buffer and Mix 2 containing reaction buffer and the kinase. 15 μL per well of Mix 1 was transferred to wells of a 96-well plate. […] Total reaction volume was 30 μL per well. The experiment was performed in duplicate for each data point being examined. Dose response curve for the positive control was carried out on each assay plate by adding the reference inhibitory compound staurosporine. For each test, three controls were also included: (i) 30 μL of the reaction mixture containing: reaction buffer, ATP, kinase, DMSO without substrate (quasi-positive control); (ii) 30 μL of the reaction mixture containing reaction buffer, substrate, ATP, DMSO without kinase (background control); (iii) 30 μL of the reaction mixture containing reaction buffer, substrate, kinase, ATP, DMSO (vehicle control). Final concentration of DMSO in the reaction was 2%. To detect the ADP amount produced during the kinase reaction, the commercially available kit ADP-Glo™ Kinase Assay (Promega, cat. No # V9103) was used. The protocol used for the detection was based on the Technical Bulletin of the ADP-Glo™ Kinase Assay (Promega) and was adapted to 96-well plate containing 30 μL reaction mixture as explained below. 30 μL of ADP-Glo™ Reagent was added to each well of a 96 well plate containing 30 μL of reaction mixture to terminate the kinase reaction and deplete the remaining ATP. The plate was incubated for 60 minutes on a shaker at rt. 60 μL of Kinase Detection Solution was then added to each well of 96-well plate containing 60 μL of the solution to convert ADP to ATP and to allow the newly synthesized ATP to be measured using a luciferase/luciferin reaction (ratio of kinase reaction volume to ADP Glo™ Reagent volume to Kinase Detection Solution volume was maintained at 1:1:2). The plate was incubated for 40 minutes on a shaker at rt, protected from light. Luminescence was measured in the plate reader, wherein the luminescent signal is proportional to the ADP concentration produced and thus correlates with kinase activity. After data normalization to controls (complete reaction mix and no-substrate control) and transforming X values (test compound concentrations) using: X=log(X), IC50 values were determined, using the GraphPad Prism 6.0 [log(agonist) vs. normalized response—Variable slope].

T2 sequence (Q9Y463 whole entry): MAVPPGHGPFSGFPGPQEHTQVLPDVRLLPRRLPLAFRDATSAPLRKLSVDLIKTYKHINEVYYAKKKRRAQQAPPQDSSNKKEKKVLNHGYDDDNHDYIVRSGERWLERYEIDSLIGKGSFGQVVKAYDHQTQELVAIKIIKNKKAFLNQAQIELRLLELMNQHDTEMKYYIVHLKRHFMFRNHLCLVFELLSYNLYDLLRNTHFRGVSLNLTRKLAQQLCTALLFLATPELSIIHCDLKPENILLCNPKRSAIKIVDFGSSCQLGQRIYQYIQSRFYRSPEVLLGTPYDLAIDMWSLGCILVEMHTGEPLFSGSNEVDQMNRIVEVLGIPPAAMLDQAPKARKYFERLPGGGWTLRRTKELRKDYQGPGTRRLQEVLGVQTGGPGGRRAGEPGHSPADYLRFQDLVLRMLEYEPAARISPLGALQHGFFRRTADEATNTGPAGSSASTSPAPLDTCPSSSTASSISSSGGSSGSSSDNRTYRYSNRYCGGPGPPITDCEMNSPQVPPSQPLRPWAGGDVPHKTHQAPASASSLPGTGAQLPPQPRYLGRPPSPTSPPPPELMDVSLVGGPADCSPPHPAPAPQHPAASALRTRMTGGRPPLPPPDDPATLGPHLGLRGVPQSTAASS

What is called pIC50 is the IC50 on a negative log10 scale, so that one unit is a factor of ten. As to `CNC(=O)c1cnc2[nH]cc(-c3cc(F)c4nccc(-c5cccnc5)c4c3)c2c1` [Example 39, 3-[8-Fluoro-4-(pyridin-3-yl)quinolin-6-yl]-N-methyl-1H-pyrrolo[2,3-b]pyridine-5-carboxamide], the pIC50 at DYRK1A and on DYRK1B was over 8.00 in each case.

`CNC(=O)c1cnc2[nH]cc(-c3cc(F)c4nccc(CCc5ccccc5)c4c3)c2c1` [Example 40, 3-[8-Fluoro-4-(2-phenylethyl)quinolin-6-yl]-N-methyl-1H-pyrrolo[2,3-b]pyridine-5-carboxamide]: the pIC50 on DYRK1A and on DYRK1B was over 8.00 in each case.

Consider `CNC(=O)c1cnc2[nH]cc(-c3cc(F)c4nccc(N5CCC[C@@H](N)C5)c4c3)c2c1` [Example 41, 3-{4-[(3R)-3-Aminopiperidin-1-yl]-8-fluoroquinolin-6-yl}-N-methyl-1H-pyrrolo[2,3-b]pyridine-5-carboxamide hydrochloride], for which the negative logarithm of the IC50 (pIC50) against DYRK1A and on DYRK1B was over 8.00 each time.

Turning to `CNC(=O)c1cnc2[nH]cc(-c3cc(F)c4nccc(N5CCC[C@H](N)C5)c4c3)c2c1` [Example 43, 3-{4-[(3S)-3-Aminopiperidin-1-yl]-8-fluoroquinolin-6-yl}-N-methyl-1H-pyrrolo[2,3-b]pyridine-5-carboxamide hydrochloride], the pIC50 on DYRK1A and on DYRK1B was over 8.00 throughout.

As for `CNC(=O)c1cnc2[nH]cc(-c3cc(F)c4nccc(-c5cnccc5C)c4c3)c2c1` [Example 44, N-Methyl-3-[8-fluoro-4-(4-methylpyridin-3-yl)quinolin-6-yl]-1H-pyrrolo[2,3-b]pyridine-5-carboxamide], the pIC50 at DYRK1A and on DYRK1B was over 8.00 throughout.

On to `COc1cc(-c2c[nH]c3ncc(C(N)=O)cc23)cc2c(-c3cccnc3)ccnc12` [Example 45, 3-[8-Methoxy-4-(pyridin-3-yl)quinolin-6-yl]-1H-pyrrolo[2,3-b]pyridine-5-carboxamide], for which the pIC50 against DYRK1A is under 7.00; on DYRK1B it was 7.00 to 8.00.

`CC(=O)Nc1cnc2[nH]cc(-c3cc(F)c4nccc(-c5cccnc5)c4c3)c2c1` [Example 46, N-{3-[8-Fluoro-4-(pyridin-3-yl)quinolin-6-yl]-1H-pyrrolo[2,3-b]pyridin-5-yl}acetamide]: the pIC50 against DYRK1A and at DYRK1B was over 8.00 in each case.

Consider `O=C(NCc1cccnc1)c1cnc2[nH]cc(-c3cc(F)c4nccc(-c5cccnc5)c4c3)c2c1` [Example 47, 3-[8-Fluoro-4-(pyridin-3-yl)quinolin-6-yl]-N-(pyridin-3-ylmethyl)-1H-pyrrolo[2,3-b]pyridine-5-carboxamide], for which the pIC50 at DYRK1A and on DYRK1B was over 8.00 in each case.

For `N[C@@H]1CCCN(c2ccnc3c(F)cc(-c4c[nH]c5ncc(C(=O)NCc6cccnc6)cc45)cc23)C1` [Example 48, 3-{4-[(3R)-3-Aminopiperidin-1-yl]-8-fluoroquinolin-6-yl}-N-(pyridin-3-ylmethyl)-1H-pyrrolo[2,3-b]pyridine-5-carboxamide hydrochloride], the pIC50 on DYRK1A and on DYRK1B was over 8.00 throughout.

Turning to `N[C@@H]1CCCN(c2ccnc3c(F)cc(-c4c[nH]c5ncc(C(=O)NCc6cncnc6)cc45)cc23)C1` [Example 49, 3-{4-[(3R)-3-Aminopiperidin-1-yl]-8-fluoroquinolin-6-yl}-N-(pyrimidin-5-ylmethyl)-1H-pyrrolo[2,3-b]pyridine-5-carboxamide hydrochloride], the pIC50 at DYRK1A and on DYRK1B was over 8.00 each time.

As to `Fc1cc(-c2c[nH]c3ncc(CNCc4ccccc4)cc23)cc2c(-c3cccnc3)ccnc12` [Example 50, Benzyl({3-[8-fluoro-4-(pyridin-3-yl)quinolin-6-yl]-1H-pyrrolo[2,3-b]pyridin-5-yl}methyl)amine], the pIC50 against DYRK1A and on DYRK1B was over 8.00 each time.

Consider `N[C@@H]1CCCN(c2ccnc3c(F)cc(-c4c[nH]c5ncc(CNCc6ccccc6)cc45)cc23)C1` [Example 51, (3R)-1-(6-{5-[(Benzylamino)methyl]-1H-pyrrolo[2,3-b]pyridin-3-yl}-8-fluoroquinolin-4-yl)piperidin-3-amine], for which the pIC50 against DYRK1A and on DYRK1B was over 8.00 each time.

In the case of `C=CCN(C)Cc1cnc2[nH]cc(-c3cc(F)c4nccc(-c5cccnc5)c4c3)c2c1` [Example 52, ({3-[8-Fluoro-4-(pyridin-3-yl)quinolin-6-yl]-1H-pyrrolo[2,3-b]pyridin-5-yl}methyl)(methyl)(prop-2-en-1-yl)amine], the negative-log IC50 (pIC50) is 7.00 to 8.00 on DYRK1A and over 8.00 on DYRK1B.

`CNC(=O)c1cnc2[nH]cc(-c3ccc4ncc([N+](=O)[O-])c(N5CCC[C@H](N)C5)c4c3)c2c1` [Example 53, 3-{4-[(3S)-3-Aminopiperidin-1-yl]-3-nitroquinolin-6-yl}-N-methyl-1H-pyrrolo[2,3-b]pyridine-5-carboxamide hydrochloride]: the pIC50 on DYRK1A is 7.00 to 8.00; at DYRK1B it was over 8.00.

Turning to `CNC(=O)c1cnc2[nH]cc(-c3ccc4ncc(N)c(N5CCC[C@H](N)C5)c4c3)c2c1` [Example 54, 3-{3-Amino-4-[(3S)-3-aminopiperidin-1-yl]quinolin-6-yl}-N-methyl-1H-pyrrolo[2,3-b]pyridine-5-carboxamide hydrochloride], the pIC50 at DYRK1A and on DYRK1B was over 8.00 throughout.
